Measured values reported in patent US5516797A, “Immunosuppressive compounds” (Vertex Pharmaceuticals, Incorporated, priority 1994, dated 1996).

Key:
[1] = molecular target: FK-506 binding protein (FKBP) (Homo sapiens, UniProt P62942); test: Inhibition of PPIase (rotamase) enzyme activity of FKBP (apparent Ki); assay type: biochemical; conditions: substrate N-succinylAla-Ala-Pro-Phe-p-nitroanilide, chymotrypsin-coupled
Text: The inhibition of the PPIase (rotamase) enzyme activity of the FKBP (apparent "Ki" values) can also be measured according to the methods described by either Harding, M. W. et al., Nature 341:758-760 (1989) or Siekierka, J. J. et al., Nature 341:755-757 (1989). The cis-trans isomerization of the proline-alanine peptide bond in a model substrate, N-succinylAla-Ala-Pro-Phe-p-nitroanilide, is monitored spectrophotometrically in a coupled assay with chymotrypsin, which releases 4-nitroanilide from the trans form of the substrate. Fischer, G. et al., Nature 337:476-478 (1989). The inhibitory effect of the addition of different concentrations of inhibitor on the extent of the reaction is determined, and analysis of the change in first order rate constant as a function of inhibitor concentration yields an estimate of the apparent Ki value.

[2] = system: human peripheral blood lymphocytes; test: Mitogenesis assay OKT3: inhibition of proliferation of human PBLs; assay type: cell-based; conditions: Lymphocyte, OKT3 (10^-4 dilution final), 48 h incubation
Method: (§1) PMA and OKT3mitogens used to stimulate proliferation of human peripheral
(§2) blood lymphocytes (PBC). Compounds are evaluated on their ability to
(§3) Fresh peripheral blood lymphocytes (PBLs) from LeukoPak cells or whole blood from random normal blood donors (tested HIV-negative and hepatitis negative) are isolated and separated by density centrifugation over Histopaque 1077 (Sigma Chemical Co., St. Louis, Mo.). The murine CTLL cytotoxic T cell line and the human Jurkat T cell line are from ATCC (CTLL-2 ATCC TIB214, JURKAT CLONE E6-1 ATCC TIBl52). The human allogeneic B cell lines used for activation of the fresh PBLs are EBV-transformed lymphocytes from normal healthy adult donors with two completely different HLAhaplotypes. All cell lines were routinely tested for the presence of Mycolasma contamination using the GibcoMycotect test kit and are Mycolasma-free. Culture medium consksts of RPMI 1640 (Gibco, Grand Island, N.Y.) containing penicillin (50 U/ml) and streptomycin (50 μg/ml), L-glutamine 2 mM, 2 mercaptoethanol (5×10^-5), 10% heat-inactivated FCS and 10 mM HEPES.
(§4) All chemical stocks were dissolved in DMSO.
(§5) Mitogenesis Assays ("PMA" and "OKT3")
(§6) After 48 h incubation (37° C., 5% CO2), cells were pulsed with 1 μCi of ^3 H-thymidine, harvested 24 h later with a Tom Tek cell harvester, and counted in LKB β-scintillation counter.

[3] = system: PBLs stimulated with LB human viral transformed B lymphoblastoid cells; test: MLR bioassay LB: inhibition of proliferation in mixed lymphocyte reaction; assay type: cell-based; conditions: Lymphoblastoid cell, pulsed on day 6, harvested 24 h later
Method: (§7) LB and JVMhuman viraltransformed B lymphoblastoid cell lines stimulated t
(§8) proliferate in a mixed lymphocyte reaction (MLR). The compounds are
(§9) evaluated on their ability to inhibit this proliferation.
as §3, §4
(§10) MLR Bioassays ("LB" and "JVM")
(§11) Antigen activated proliferation of PBLs in a primary mixed lymphocyte reaction was assessed in the presence or absence of different concentrations of tested compounds and control drugs. 5×10^4 fresh PBLs were stimulated with 5×10^3 of Mitomycin C treated-allogeneic EBV-transformed β-lymphoglastoid cells, IB and JVM, in a final volume of 200 μl per well in 96-well round-bottomed plates (Mishell, B. B. and S. M. Shiigi, Selected Methods in Cellular Immunology W. H. Freeman and Co., San Francisco, Calif. (1980); Nelson, P. A. et al., Transplantation 50:286 (1990)). Cultures were pulsed on day 6, harvested 24 h later and counted as in previous section.

[4] = system: PBLs stimulated with JVM human viral transformed B lymphoblastoid cells; test: MLR bioassay JVM: inhibition of proliferation in mixed lymphocyte reaction; assay type: cell-based; conditions: Lymphoblastoid cell, pulsed on day 6, harvested 24 h later
Method: as §7, §8, §9, §3, §4, §10, §11

[5] = system: human peripheral blood lymphocytes; test: Mitogenesis assay PMA: inhibition of proliferation of human PBLs; assay type: cell-based; conditions: Lymphocyte, PMA (10 ng/ml) plus ionomycin (250 ng/ml), 48 h incubation
Method: as §1, §2, §3, §4, §5, §6

Chain of FK-506 binding protein (FKBP) (P62942 whole entry): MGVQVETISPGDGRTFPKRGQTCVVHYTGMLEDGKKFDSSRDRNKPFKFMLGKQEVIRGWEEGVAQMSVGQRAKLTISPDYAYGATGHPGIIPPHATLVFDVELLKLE

Structure (SMILES) | Ki [1] [µM] | IC50 [2] [µM] | IC50 [3] [µM] | IC50 [4] [µM] | IC50 [5] [µM]
C=CCOC(=O)[C@@H]1CCCCN1C(=O)C(=O)c1ccccc1 [Compound 4] | 8 |  |  |  | 
O=C(C(=O)N1CCCC[C@H]1C(=O)Oc1cccc2ccccc12)c1ccccc1 [Compound 5] | 0.9 | > 10 | > 10 | > 10 | > 10
CC(C)CC(=O)C(=O)N1CCCC[C@H]1C(=O)OCc1ccccc1 [Compound 7] | 0.9 | > 10 | > 10 | > 10 | > 10
C/C(=C\c1ccccc1)COC(=O)[C@@H]1CCCCN1C(=O)C(=O)c1ccccc1 [Compound 23] | 1.5 | > 10 | > 10 | > 10 | > 10
C/C(=C\c1ccc(O)cc1)COC(=O)[C@@H]1CCCCN1C(=O)C(=O)c1ccccc1 [Compound 24] | 6 |  |  |  | 
C/C(=C\[C@H]1CC[C@@H](O)CC1)COC(=O)[C@@H]1CCCCN1C(=O)C(=O)c1ccccc1 [Compound 25, (E)-3-[cis-4-(hydroxycyclohexyl)]-2-methylprop-2-enyl N-(phenylglyoxyl)-pipecolate] | 0.6 | > 10 | > 10 | > 10 | > 10
C/C(=C\[C@H]1CC[C@H](O)CC1)COC(=O)[C@@H]1CCCCN1C(=O)C(=O)c1ccccc1 [Compound 26] | 0.5 | 6.5 | > 10 | > 10 | > 10
COC(=O)C(=O)N1CCCC[C@H]1C(=O)OC/C(C)=C/c1ccc(OC)c(OC)c1 [Compound 37] | 10 |  |  |  | 
COC(=O)C(=O)N1CCCC[C@H]1C(=O)OC/C(C)=C/c1ccc(O)cc1 [Compound 38] | 60 |  |  |  | 
O=C(C(=O)N1CCC[C@H]1C(=O)OCc1ccccc1)c1ccccn1 [Compound 43] | 300 |  |  |  | 
O=C(C(=O)N1CCCC[C@H]1C(=O)OCc1ccccc1)c1ccc(F)c(F)c1 [Compound 44] | 3 |  |  |  | 
COc1ccc(/C=C/C(=O)C(=O)N2CCCC[C@H]2C(=O)OCc2ccccc2)cc1 [Compound 45] | 1 | > 10 | > 10 | > 10 | > 10
O=C(C(=O)N1CCCC[C@H]1C(=O)OCc1ccccc1)c1ccccc1C(F)(F)F [Compound 55] | 5 |  |  |  | 
O=C(C(=O)N1CCCC[C@H]1C(=O)OCCCCC1CCCCC1)c1ccccc1 [Compound 56] |  | > 10 | > 10 | 6.5 | > 10
COc1cc(C(=O)C(=O)N2CCCC[C@H]2C(=O)OCCCCC2CCCCC2)cc(OC)c1OC [Compound 57] |  | 4.5 | > 10 | 8 | 4
O=C(C(=O)N1CCCC[C@H]1C(=O)OCc1ccc(-c2ccccc2)cc1)c1ccccc1 [Compound 58] | 5 |  |  |  | 
COc1cc(C(=O)C(=O)N2CCCC[C@H]2C(=O)OCc2ccc(-c3ccccc3)cc2)cc(OC)c1OC [Compound 59] | 2 |  |  |  | 
CCOc1cccc(C(=O)C(=O)N2CCCC[C@H]2C(=O)OCc2ccccc2)c1 [Compound 60] | 0.56 | > 10 | > 10 | > 10 | > 10
COc1cc(C(=O)C(=O)N2CCCC[C@H]2C(=O)OCc2cccc(Oc3ccccc3)c2)cc(OC)c1OC [Compound 61] |  | 8 | > 10 | > 10 | 4
O=C(C(=O)N1CCCC[C@H]1C(=O)OCCCCc1ccccc1)c1ccccc1 [Compound 64] |  | 6 | > 10 | > 10 | 10
O=C(C(=O)N1CCCC[C@H]1C(=O)OCCc1ccccc1)c1ccccc1 [Compound 68] |  | > 10 | > 10 | > 10 | > 10
COc1cc(C(=O)C(=O)N2CCCC[C@H]2C(=O)OCCCc2c[nH]c3ccccc23)cc(OC)c1OC [Compound 84] |  | 6 | 6 | > 10 | 4.5

Now from value to compound, other results behind:

Ki [1] [µM] | Structure (SMILES) | IC50 [2] [µM] | IC50 [3] [µM] | IC50 [4] [µM] | IC50 [5] [µM]
1 | C=CCOc1cccc(C(=O)C(=O)N2CCCC[C@H]2C(=O)OCc2ccccc2)c1 [Compound 65] | > 10 | > 10 | > 10 | > 10
0.5 | CC(C)Oc1cccc(C(=O)C(=O)N2CCCC[C@H]2C(=O)OCc2ccccc2)c1 [Compound 66] | > 10 | > 10 | > 10 | > 10
1 | CCC(C)C(=O)C(=O)N1CCCC[C@H]1C(=O)OCc1ccccc1 (stereo partly drawn) [Compound 67] | > 10 | > 10 | > 10 | > 10
0.5 | O=C(C(=O)N1CCCC[C@H]1C(=O)OCCCCCCc1ccccc1)c1ccccc1 [Compound 69] | > 10 | > 10 | > 10 | 6.1
0.07 | COc1cc(C(=O)C(=O)N2CCCC[C@H]2C(=O)OCCCCCc2ccccc2)cc(OC)c1OC [Compound 70] | 4.5 | > 10 | 9 | 7
0.8 | COc1cc(C(=O)C(=O)N2CCCC[C@H]2C(=O)OCc2ccc(Oc3ccccc3)cc2)cc(OC)c1OC [Compound 73] | > 10 | 4.5 | 6 | 8
0.36 | CCCCOc1cccc(C(=O)C(=O)N2CCCC[C@H]2C(=O)OCc2ccccc2)c1 [Compound 75] | > 10 | 9 | > 10 | 8
0.1 | CC(C)Oc1cccc(C(=O)C(=O)N2CCCC[C@H]2C(=O)OCCCCc2ccccc2)c1 [Compound 76] | 10 | 9 | > 10 | 5
1.4 | COc1cc(C(=O)C(=O)N2CCCC[C@H]2C(=O)OCc2ccc(I)cc2)cc(OC)c1OC [Compound 78] | > 10 | > 10 | > 10 | > 10
0.22 | COc1cc(C(=O)C(=O)N2CCCC[C@H]2C(=O)OCCc2ccc3ccccc3c2)cc(OC)c1OC [Compound 79] | 2.5 | > 10 | > 10 | 10
0.5 | COc1cc(C(=O)C(=O)N2CCCC[C@H]2C(=O)OCCc2cccc3ccccc23)cc(OC)c1OC [Compound 80] | 4 | 10 | 10 | 3
10 | COc1ccc(OC)c(/C=C/C(=O)N2CCC[C@H]2C(=O)OCc2ccccc2)c1 [Compound 113] |  |  |  | 
25 | COc1cc(OC)c(OC)cc1/C=C/C(=O)N1CCC[C@H]1C(=O)OCc1ccccc1 [Compound 114] |  |  |  | 
2.5 | O=C(OCc1ccccc1)[C@@H]1CCCCN1C(=O)/C=C/c1ccco1 [Compound 118] |  |  |  | 
2.5 | O=C(OCc1ccccc1)[C@@H]1CCCCN1C(=O)/C=C/c1ccoc1 [Compound 119] |  |  |  | 
25 | O=C(OCc1ccccc1)[C@@H]1CCCCN1C(=O)/C=C/c1cccnc1 [Compound 121] |  |  |  | 
300 | C=CC(=O)N1CCCC[C@H]1C(=O)OCc1ccccc1 [Compound 122] |  |  |  | 
11 | O=C(OCc1ccccc1)[C@@H]1CCCCN1C(=O)/C=C/c1ccccc1 [Compound 123] |  |  |  | 
50 | C[C@@H](C(=O)OCc1ccccc1)N(C)C(=O)/C=C/c1ccc2c(c1)OCO2 [Compound 131] |  |  |  | 
60 | C[C@H](NC(=O)/C=C/c1ccc2c(c1)OCO2)C(=O)OCc1ccccc1 [Compound 132, (S)-3-(3,4-Methylenedioxyphenyl)-prop-2-enoylalanine benzyl ester] |  |  |  | 
